Source: PMC12238837, “DCAF16‐Based Covalent Molecular Glues for Targeted Protein Degradation of Histone Deacetylases” (Archiv Der Pharmazie, 2025)
Where two headings read alike, the source gives them in different places. Values belong to the molecule of their own block, whether it stands above or below them.

Tests used:
HDAC3 = molecular target: T1, HDAC3 (Homo sapiens, UniProt O15379); assay: HDAC3 degradation, western blot in MM.1S cells; format: cell-based; conditions: MM.1S cells, 1, 10, 25 μM
T1 construct: endogenous in cells; host or cells: MM.1S
T1 sequence (O15379 whole entry): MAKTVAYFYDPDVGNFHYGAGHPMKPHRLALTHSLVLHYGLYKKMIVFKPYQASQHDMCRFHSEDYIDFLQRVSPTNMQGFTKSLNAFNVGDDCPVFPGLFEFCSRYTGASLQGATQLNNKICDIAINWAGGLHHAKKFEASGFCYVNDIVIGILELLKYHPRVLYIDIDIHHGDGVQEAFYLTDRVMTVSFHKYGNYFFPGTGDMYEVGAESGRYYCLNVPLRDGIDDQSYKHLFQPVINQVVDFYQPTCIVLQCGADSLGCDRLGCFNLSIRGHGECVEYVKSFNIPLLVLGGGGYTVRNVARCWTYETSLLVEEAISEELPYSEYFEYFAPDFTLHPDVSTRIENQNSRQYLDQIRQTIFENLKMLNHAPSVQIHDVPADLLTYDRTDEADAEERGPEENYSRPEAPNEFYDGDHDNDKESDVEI
Description: (§1) Subsequently, degrader 10a was investigated at various concentrations (1, 10, and 25 µM) for degradation effects on different HDAC isoforms, including HDAC2, HDAC3, and HDAC4. […] In detail, 10a induced a modest degradation of HDAC2 (D max = 46% at 25 μM), which may be attributed to the high structural similarity between HDAC1 and HDAC2, particularly in their catalytic domains.
(§2) The MM.1S was obtained from ATCC (Manassas, VA, USA). MM.1S cells were cultivated in RPMI 1640 medium supplemented with 10% FBS, 100 IU/mL penicillin, 0.1 mg/mL streptomycin, and 1 mM sodium pyruvate at 37°C in a 5% CO2 atmosphere.
(§3) The MM.1S cells (3 × 10^6 cells/mL) were seeded into cell culture flasks and, after 72 h, treated with the indicated concentration of compound or DMSO for the given time. Cell lysis was performed with Cell Extraction Buffer and the addition of Halt Protease Inhibitor Cocktail and phenylmethanesulfonyl fluoride. Protein content was determined by Pierce BCA Protein Assay Kit. Samples were denatured by Laemmli 2× Concentrate, and Precision Plus Protein Unstained Standard was used as a molecular weight marker in all cases. […] The ChemiDoc XRS+ System was used for detection, and Image Lab Software 6.1 (Bio‐Rad, Hercules, CA, USA) for quantification.

HDAC4 = molecular target: T2, HDAC4 (Homo sapiens, UniProt P56524); assay: HDAC4 degradation, western blot in MM.1S cells; format: cell-based; conditions: MM.1S cells, 1, 10, 25 μM
T2 construct: HDAC2, HDAC3, and HDAC4 levels were detected by immunoblot analysis; endogenous in cells; host or cells: MM.1S
T2 sequence (P56524 whole entry): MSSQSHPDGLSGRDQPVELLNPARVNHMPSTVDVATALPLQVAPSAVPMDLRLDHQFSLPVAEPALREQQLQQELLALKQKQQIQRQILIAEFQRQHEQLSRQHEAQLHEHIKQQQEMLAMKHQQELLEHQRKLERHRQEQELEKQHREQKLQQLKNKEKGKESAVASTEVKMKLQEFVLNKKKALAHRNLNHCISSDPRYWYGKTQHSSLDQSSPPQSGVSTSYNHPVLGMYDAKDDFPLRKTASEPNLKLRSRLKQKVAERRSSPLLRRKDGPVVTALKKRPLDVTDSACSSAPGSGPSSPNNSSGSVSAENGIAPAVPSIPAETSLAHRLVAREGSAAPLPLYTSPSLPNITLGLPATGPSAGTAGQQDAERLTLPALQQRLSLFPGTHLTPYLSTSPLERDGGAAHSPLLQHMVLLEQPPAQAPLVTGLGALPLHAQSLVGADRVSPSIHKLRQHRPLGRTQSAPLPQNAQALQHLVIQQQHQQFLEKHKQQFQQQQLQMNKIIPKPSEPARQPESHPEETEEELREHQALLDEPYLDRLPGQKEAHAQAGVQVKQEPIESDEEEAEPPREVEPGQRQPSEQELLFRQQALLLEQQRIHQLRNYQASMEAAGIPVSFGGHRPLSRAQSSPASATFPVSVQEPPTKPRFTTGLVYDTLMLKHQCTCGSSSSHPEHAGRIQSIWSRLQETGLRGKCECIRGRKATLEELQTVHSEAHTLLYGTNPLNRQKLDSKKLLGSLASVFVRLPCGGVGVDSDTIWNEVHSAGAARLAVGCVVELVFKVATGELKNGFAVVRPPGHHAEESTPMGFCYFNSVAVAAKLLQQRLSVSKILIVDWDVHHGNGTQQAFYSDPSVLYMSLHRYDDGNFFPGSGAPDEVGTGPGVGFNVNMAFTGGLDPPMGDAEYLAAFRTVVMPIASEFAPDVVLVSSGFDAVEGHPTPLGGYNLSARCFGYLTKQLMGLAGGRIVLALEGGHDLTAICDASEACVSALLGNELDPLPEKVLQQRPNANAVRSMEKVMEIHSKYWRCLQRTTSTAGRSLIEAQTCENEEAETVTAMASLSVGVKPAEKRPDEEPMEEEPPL
Description: as §1, §2, §3

MM.1S cells [1] = assay: CellTiter-Glo cell viability assay; format: cell-based; conditions: Homo sapiens, MM1.S, 72 h, read-out: IC50 cell viability
Description: The MM.1S was obtained from ATCC (Manassas, VA, USA).
(§4) For this purpose, the dilution series was prepared at 200× concentration in DMSO and then further diluted to 10× concentration in medium. The final DMSO concentration was 0.5%. The toxicity of compounds was assessed after 72 h using the CellTiter‐Glo 2.0 cell viability assay. Luminescence was then measured, and the IC50 was determined by plotting dose–response curves and performing nonlinear regression using GraphPad Prism.
as §4, with “series were” for “series was”, “the CellTiter-Glo” for “the CellTiter‐Glo”, “plotting dose-response” for “plotting dose–response”, “GraphPad Prism.^[1]” for “GraphPad Prism.”

[2] = molecular target: T3, Human recombinant HDAC3/NcoR2 (Homo sapiens, UniProt O15379); assay: HDAC enzyme inhibition assay (ZMAL substrate), HDAC3; format: biochemical; conditions: n = 2, mean ± SD
T3 construct: purchased BPS Bioscience 50003
T3 sequence (O15379 whole entry): as the sequence (O15379 whole entry) above
T3 sequence (Q9Y618 395-489 partner limits assumed): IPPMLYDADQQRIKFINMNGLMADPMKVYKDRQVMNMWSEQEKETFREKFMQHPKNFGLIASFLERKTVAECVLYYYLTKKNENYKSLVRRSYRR
Description: (§5) The total assay volume of 50 μL (HDAC2/3/6 max. 1% DMSO; HDAC1 max. 5% DMSO) was incubated at 37°C for 90 min. Subsequently, 50 μL of trypsin (0.4 mg/mL) in trypsin buffer (50 mM Tris−HCl, pH 8.0, 100 mM NaCl) was added, followed by an additional 30 min of incubation at 37°C. Fluorescence (excitation λ = 355 nm, emission λ = 460 nm) was measured using a FLUOstar OPTIMA microplate reader. The IC50 was determined by plotting dose–response curves and performing nonlinear regression using GraphPad Prism.
as §5, with “by” for “by an”, “dose response” for “dose–response”, “Prism.^[3-6]” for “Prism.”

Human recombinant HDAC6 = molecular target: T4, Human recombinant HDAC6 (Homo sapiens, UniProt Q9UBN7); assay: HDAC enzyme inhibition assay (ZMAL substrate), HDAC6; format: biochemical; conditions: n = 2, mean ± SD
T4 construct: purchased BPS Bioscience 50006
T4 sequence (Q9UBN7 1-1215): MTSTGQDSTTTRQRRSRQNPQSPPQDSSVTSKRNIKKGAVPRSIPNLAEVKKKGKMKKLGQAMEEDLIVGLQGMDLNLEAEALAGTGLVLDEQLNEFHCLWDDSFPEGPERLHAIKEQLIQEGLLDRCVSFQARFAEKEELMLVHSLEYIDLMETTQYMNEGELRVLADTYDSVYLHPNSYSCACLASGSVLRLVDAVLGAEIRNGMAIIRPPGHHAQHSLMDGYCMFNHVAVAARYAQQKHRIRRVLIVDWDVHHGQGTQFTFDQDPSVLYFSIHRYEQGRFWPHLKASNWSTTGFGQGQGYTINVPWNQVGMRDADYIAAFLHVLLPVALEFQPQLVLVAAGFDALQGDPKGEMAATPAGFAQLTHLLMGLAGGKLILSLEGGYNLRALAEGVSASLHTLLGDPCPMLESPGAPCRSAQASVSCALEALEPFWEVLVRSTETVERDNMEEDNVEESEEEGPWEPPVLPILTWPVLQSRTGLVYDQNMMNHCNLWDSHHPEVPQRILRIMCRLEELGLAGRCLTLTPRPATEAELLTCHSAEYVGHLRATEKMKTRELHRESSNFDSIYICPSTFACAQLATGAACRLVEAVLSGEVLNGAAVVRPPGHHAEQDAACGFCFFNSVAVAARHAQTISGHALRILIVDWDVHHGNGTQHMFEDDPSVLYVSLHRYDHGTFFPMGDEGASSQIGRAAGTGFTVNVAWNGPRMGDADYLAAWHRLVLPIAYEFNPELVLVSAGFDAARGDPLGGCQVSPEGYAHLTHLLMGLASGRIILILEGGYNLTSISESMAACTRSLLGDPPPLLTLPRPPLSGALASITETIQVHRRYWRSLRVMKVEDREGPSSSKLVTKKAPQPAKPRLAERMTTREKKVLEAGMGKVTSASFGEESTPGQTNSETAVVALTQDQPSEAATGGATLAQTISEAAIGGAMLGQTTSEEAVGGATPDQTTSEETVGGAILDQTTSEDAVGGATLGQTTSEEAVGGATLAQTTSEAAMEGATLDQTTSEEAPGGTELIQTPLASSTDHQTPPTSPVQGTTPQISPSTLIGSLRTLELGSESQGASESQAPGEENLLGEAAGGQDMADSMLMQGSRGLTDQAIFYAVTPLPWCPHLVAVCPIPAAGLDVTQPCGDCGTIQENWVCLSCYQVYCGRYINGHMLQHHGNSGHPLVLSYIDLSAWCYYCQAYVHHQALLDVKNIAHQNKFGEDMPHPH
Description: as §5
as §5, with “by” for “by an”, “dose response” for “dose–response”, “Prism.^[3-6]” for “Prism.”

[3] = test system: acetylated histone H3 (indicator of reduced HDAC1‐3 activity); assay: Cellular target engagement: immunoblot of acetylated histone H3; format: cell-based; conditions: MM.1S cells, 10 µM, 24 h
Description: (§6) Immunoblot analysis of acetylated histone H3 (A) and α‐tubulin (B) in MM.1S cell lysates after treatment with the indicated compounds (10 µM) or vehicle (DMSO) for 24 h. Representative images from a total of n = 2 replicates.
(§7) The MM.1S cells (3 × 10^6 cells/mL) were seeded into cell culture flasks and, after 72 h, treated with the indicated concentration of compound or DMSO for the given time. Cell lysis was performed with Cell Extraction Buffer and the addition of Halt Protease Inhibitor Cocktail and phenylmethanesulfonyl fluoride. Protein content was determined by Pierce BCA Protein Assay Kit. Samples were denatured by Laemmli 2× Concentrate, and Precision Plus Protein Unstained Standard was used as a molecular weight marker in all cases. SDS‐PAGE was performed with 10% Mini‐PROTEAN TGX Stain‐Free Gel (Catalog# 458035, Bio‐Rad, Hercules, CA, USA) at 200 V for 50 min (Catalog# 458035, Bio‐Rad). Afterwards, proteins were transferred with the Trans‐Blot Turbo Transfer System to Immobilon‐FL PVDF membranes at 1.0 A for 30 min and incubated with 5% milk‐powder solution for 1 h at room temperature under slight agitation. Subsequently, the membranes were incubated with anti‐HDAC1 (Catalog# 5356S, Cell Signaling Technology, Denver, MA, USA), anti‐HDAC2 (Catalog# 9959S, Cell Signaling Technology, Denver, MA, USA), anti‐HDAC3 (Catalog# 85057S, Cell Signaling Technology, Denver, MA, USA), anti‐HDAC4 (Catalog# 7628S, Cell Signaling Technology, Denver, MA, USA), anti‐HDAC6 (Catalog# 7558S, Cell Signaling Technology, Denver, MA, USA), anti‐acetyl‐histone H3 (Catalog# 9677S, Cell Signaling Technology, Denver, MA, USA), anti‐acetyl‐α‐tubulin (Catalog# 5335, Cell Signaling Technology, Denver, MA, USA), or anti‐GAPDH (Catalog# T0004, Affinity Biosciences, Cincinnati, OH, USA) antibody solutions in 1:1000–1:20000 dilutions at room temperature under slight agitation for 1 h, then put membranes at 4°C for overnight. […] The ChemiDoc XRS+ System was used for detection, and Image Lab Software 6.1 (Bio‐Rad, Hercules, CA, USA) for quantification.

[4] = test system: acetylated α‐tubulin (marker of decreased HDAC6 activity); assay: Cellular target engagement: immunoblot of acetylated α-tubulin; format: cell-based; conditions: MM.1S cells, 10 µM, 24 h
Description: as §6, §7

MM.1S cells [5] = assay: Annexin V-FITC/PI apoptosis assay, flow cytometry; format: cell-based; conditions: 10 μM, 48 h
Description: The percentage of cells that were annexin V‐positive but PI‐negative was considered as early apoptotic, whereas the percentage of cells that were both annexin V‐ and PI‐positive was considered as late apoptotic. Data are presented as mean ± standard deviation (n = 2 biological replicates, each performed in duplicates). Statistical analysis was performed by using one‐way ANOVA in GraphPad Prism 8. Statistical significance was indicated with asterisks (****p ≤ 0.0001).
MM.1S cells (3 × 10^5 cells/well) were seeded in 24‐well plates and treated with the indicated concentration of compound or DMSO for 48 h under cell culture conditions. Subsequently, cells were washed with cell staining buffer (HEPES 0.1 M, NaCl 1.4 M, CaCl2·3H2O 25 mM), resuspended in 300 µL, and 150 µL was transferred in a 96‐well plate.

HDAC1 [6] = molecular target: T5, HDAC1 (Homo sapiens, UniProt Q13547); assay: HDAC enzyme inhibition assay (ZMAL substrate), HDAC1; format: biochemical; design: purchased BPS Bioscience 50051; conditions: n = 2, mean ± SD
T5 sequence (Q13547 whole entry): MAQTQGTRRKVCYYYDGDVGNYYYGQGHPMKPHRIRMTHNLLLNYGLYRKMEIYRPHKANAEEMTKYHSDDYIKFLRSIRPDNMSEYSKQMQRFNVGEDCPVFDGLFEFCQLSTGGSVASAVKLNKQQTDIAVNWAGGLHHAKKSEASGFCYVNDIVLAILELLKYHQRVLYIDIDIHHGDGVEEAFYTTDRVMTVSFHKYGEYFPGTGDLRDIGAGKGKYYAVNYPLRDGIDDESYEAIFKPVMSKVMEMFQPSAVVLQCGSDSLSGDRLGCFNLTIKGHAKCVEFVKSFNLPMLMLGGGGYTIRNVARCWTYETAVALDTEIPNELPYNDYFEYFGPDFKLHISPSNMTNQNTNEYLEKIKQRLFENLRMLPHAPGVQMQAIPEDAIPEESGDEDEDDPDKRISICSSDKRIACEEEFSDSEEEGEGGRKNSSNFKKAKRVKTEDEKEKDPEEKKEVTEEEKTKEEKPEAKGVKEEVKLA
Description: as §5
as §5, with “by” for “by an”, “dose response” for “dose–response”, “Prism.^[3-6]” for “Prism.”

HDAC2 [7] = molecular target: T6, HDAC2 (Homo sapiens, UniProt Q92769); assay: HDAC enzyme inhibition assay (ZMAL substrate), HDAC2; format: biochemical; design: purchased BPS Bioscience 50052; conditions: n = 2, mean ± SD
T6 sequence (Q92769 whole entry): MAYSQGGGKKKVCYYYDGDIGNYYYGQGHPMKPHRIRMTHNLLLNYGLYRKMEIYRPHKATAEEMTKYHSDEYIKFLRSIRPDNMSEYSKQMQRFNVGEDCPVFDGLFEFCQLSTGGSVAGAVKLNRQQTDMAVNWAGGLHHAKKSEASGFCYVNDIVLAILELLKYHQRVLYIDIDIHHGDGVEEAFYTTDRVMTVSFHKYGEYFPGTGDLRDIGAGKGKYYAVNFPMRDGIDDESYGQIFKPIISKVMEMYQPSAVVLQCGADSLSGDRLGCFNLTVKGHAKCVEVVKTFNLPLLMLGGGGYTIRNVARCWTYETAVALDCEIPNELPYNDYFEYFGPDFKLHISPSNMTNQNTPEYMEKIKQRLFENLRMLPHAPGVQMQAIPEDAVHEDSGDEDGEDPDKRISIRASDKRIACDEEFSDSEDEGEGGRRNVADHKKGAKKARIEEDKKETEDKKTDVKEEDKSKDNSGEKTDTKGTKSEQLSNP
Description: as §5
as §5, with “by” for “by an”, “dose response” for “dose–response”, “Prism.^[3-6]” for “Prism.”

HDAC1 [8] = molecular target: T5, HDAC1; assay: HDAC1 degradation, western blot in MM.1S cells; format: cell-based; design: endogenous in cells; host or cells: MM.1S; conditions: 24 h; for HDAC1 protein levels: immunoblot
Description: First, the multiple myeloma cell line MM.1S was treated with varying concentrations (1, 10, and 25 µM) of degraders 10a–d for 6 and 24 h, respectively. HDAC1 and HDAC6 were selected for investigation due to their critical roles in various diseases such as cancer. HDAC1 and HDAC6 protein levels were subsequently evaluated using western blot analysis. […] This limited efficacy could be due to insufficient incubation time of the compounds with MM.1S cells. […] All compounds still exerted no degradation of HDAC6 at different concentrations after 24 h of treatment. However, different from 10b–d, degrader 10a, which contains a hydroxamic acid as ZBG, achieved substantial degradation of HDAC1 with a maximal degradation (D max) value of 74% at 25 μM. Consequently, Compound 10a was selected for further biological evaluations based on the initial screening results.
as §2
(§8) The MM.1S cells (3 × 10^6 cells/mL) were seeded into cell culture flasks and, after 72 h, treated with the indicated concentration of compound or DMSO for the given time. Cell lysis was performed with Cell Extraction Buffer and the addition of Halt Protease Inhibitor Cocktail and phenylmethanesulfonyl fluoride. Protein content was determined by Pierce BCA Protein Assay Kit. Samples were denatured by Laemmli 2× Concentrate, and Precision Plus Protein Unstained Standard was used as a molecular weight marker in all cases. SDS‐PAGE was performed with 10% Mini‐PROTEAN TGX Stain‐Free Gel (Catalog# 458035, Bio‐Rad, Hercules, CA, USA) at 200 V for 50 min (Catalog# 458035, Bio‐Rad). Afterwards, proteins were transferred with the Trans‐Blot Turbo Transfer System to Immobilon‐FL PVDF membranes at 1.0 A for 30 min and incubated with 5% milk‐powder solution for 1 h at room temperature under slight agitation. […] The ChemiDoc XRS+ System was used for detection, and Image Lab Software 6.1 (Bio‐Rad, Hercules, CA, USA) for quantification.

HDAC2 [9] = molecular target: T6, HDAC2; assay: HDAC2 degradation, western blot in MM.1S cells; format: cell-based; design: endogenous in cells; host or cells: MM.1S
Description: as §1, §2, §8

- HDAC3 protein levels (HDAC3; 24 h): minimal impact
- HDAC4 protein levels (HDAC4; 24 h): minimal impact
- IC50 (MM.1S cells [1]; MM.1S cells, CellTiter-Glo, n = 3, mean ± SD): 6480 ± 1180 nM
- IC50 [2]: 51 ± 4 nM
- IC50 (Human recombinant HDAC6): 27 ± 8 nM
- IC50 (HDAC1 [6]): 17 ± 1 nM
- IC50 (HDAC2 [7]): 88 ± 7 nM
- DC50 (HDAC1 [8]; 0.37 up to 30 μM, western blot, read-out: half-maximal degradation concentration (DC50) for HDAC1): 8800 ± 4400 nM
- Dmax at 25 µM (HDAC1 [8]; MM1.S, 25 μM, western blot, read-out: maximal degradation (Dmax) of HDAC1): 74%
- Dmax at 25 µM (HDAC2 [9]; MM1.S, MM.1S cells, 25 μM, 24 h, read-out: maximal degradation (Dmax) of HDAC2): 46%
- HDAC2 protein levels (HDAC2 [9]; MM.1S cells, 1, 10, 25 μM, 24 h): slightly affected
SMILES: C=CS(=O)(=O)N1CCN(C(=O)Cc2ccc(NC(=O)CCCCCCC(=O)NO)cc2)CC1 [Compound 10a, N ^1‐Hydroxy‐N ^8‐(4‐{2‐oxo‐2‐[4‐(vinylsulfonyl)piperazin‐1‐yl]ethyl}phenyl)octanediamide]
- HDAC3 degradation (HDAC3; 6 h): none of the used concentrations resulted in the degradation
- HDAC4 degradation (HDAC4; 6 h): none of the used concentrations resulted in the degradation
- effect on histone H3 acetylation compared with vorinostat [3]: markedly lower than that of vorinostat
- level of acetylated histone H3 [3]: pronounced upregulation
- hyperacetylation of α-tubulin compared with vorinostat [4]: comparable to its parent inhibitor, vorinostat
- level of acetylated α-tubulin [4]: pronounced upregulation
- apoptosis induction: proportions of early and late apoptotic cells (MM.1S cells [5]): markedly increased
- HDAC1 protein levels (HDAC1 [8]; 25 μM): induced a reduction of HDAC1 protein levels
- HDAC2 degradation (HDAC2 [9]; MM.1S cells, 1, 10, 25 μM, 6 h): none of the used concentrations resulted in the degradation

- IC50 (MM.1S cells [1]): 790 ± 130 nM
SMILES: O=C(CCCCCCC(=O)Nc1ccccc1)NO [Vorinostat]

- IC50 [2]: 323 ± 22 nM
- IC50 (HDAC1 [6]): 229 ± 4 nM
- IC50 (HDAC2 [7]): 423 ± 63 nM
- HDAC1 protein levels (HDAC1 [8]; 25 μM): did not affect HDAC1 levels
SMILES: CCS(=O)(=O)N1CCN(C(=O)Cc2ccc(NC(=O)CCCCCCC(=O)NO)cc2)CC1 [10a‐nc, N ^1‐(4‐{2‐[4‐(Ethylsulfonyl)piperazin‐1‐yl]‐2‐Oxoethyl}phenyl)‐N ^8‐Hydroxyoctanediamide]
